Experimental findings from PMC8619641, “The Antileukemic Effect of Xestoquinone, A Marine-Derived Polycyclic Quinone-Type Metabolite, Is Mediated through ROS-Induced Inhibition of HSP-90” (Molecules, 2021) are described below.

The assay addresses T1, topo IIα (Topo II) (Homo sapiens, UniProt P11388).
T1 construct: gene TOP2A
Briefly: cell-free supercoiled pHOT1 plasmid DNA relaxation assay. It is filed as biochemical.

T1 sequence (P11388 whole entry): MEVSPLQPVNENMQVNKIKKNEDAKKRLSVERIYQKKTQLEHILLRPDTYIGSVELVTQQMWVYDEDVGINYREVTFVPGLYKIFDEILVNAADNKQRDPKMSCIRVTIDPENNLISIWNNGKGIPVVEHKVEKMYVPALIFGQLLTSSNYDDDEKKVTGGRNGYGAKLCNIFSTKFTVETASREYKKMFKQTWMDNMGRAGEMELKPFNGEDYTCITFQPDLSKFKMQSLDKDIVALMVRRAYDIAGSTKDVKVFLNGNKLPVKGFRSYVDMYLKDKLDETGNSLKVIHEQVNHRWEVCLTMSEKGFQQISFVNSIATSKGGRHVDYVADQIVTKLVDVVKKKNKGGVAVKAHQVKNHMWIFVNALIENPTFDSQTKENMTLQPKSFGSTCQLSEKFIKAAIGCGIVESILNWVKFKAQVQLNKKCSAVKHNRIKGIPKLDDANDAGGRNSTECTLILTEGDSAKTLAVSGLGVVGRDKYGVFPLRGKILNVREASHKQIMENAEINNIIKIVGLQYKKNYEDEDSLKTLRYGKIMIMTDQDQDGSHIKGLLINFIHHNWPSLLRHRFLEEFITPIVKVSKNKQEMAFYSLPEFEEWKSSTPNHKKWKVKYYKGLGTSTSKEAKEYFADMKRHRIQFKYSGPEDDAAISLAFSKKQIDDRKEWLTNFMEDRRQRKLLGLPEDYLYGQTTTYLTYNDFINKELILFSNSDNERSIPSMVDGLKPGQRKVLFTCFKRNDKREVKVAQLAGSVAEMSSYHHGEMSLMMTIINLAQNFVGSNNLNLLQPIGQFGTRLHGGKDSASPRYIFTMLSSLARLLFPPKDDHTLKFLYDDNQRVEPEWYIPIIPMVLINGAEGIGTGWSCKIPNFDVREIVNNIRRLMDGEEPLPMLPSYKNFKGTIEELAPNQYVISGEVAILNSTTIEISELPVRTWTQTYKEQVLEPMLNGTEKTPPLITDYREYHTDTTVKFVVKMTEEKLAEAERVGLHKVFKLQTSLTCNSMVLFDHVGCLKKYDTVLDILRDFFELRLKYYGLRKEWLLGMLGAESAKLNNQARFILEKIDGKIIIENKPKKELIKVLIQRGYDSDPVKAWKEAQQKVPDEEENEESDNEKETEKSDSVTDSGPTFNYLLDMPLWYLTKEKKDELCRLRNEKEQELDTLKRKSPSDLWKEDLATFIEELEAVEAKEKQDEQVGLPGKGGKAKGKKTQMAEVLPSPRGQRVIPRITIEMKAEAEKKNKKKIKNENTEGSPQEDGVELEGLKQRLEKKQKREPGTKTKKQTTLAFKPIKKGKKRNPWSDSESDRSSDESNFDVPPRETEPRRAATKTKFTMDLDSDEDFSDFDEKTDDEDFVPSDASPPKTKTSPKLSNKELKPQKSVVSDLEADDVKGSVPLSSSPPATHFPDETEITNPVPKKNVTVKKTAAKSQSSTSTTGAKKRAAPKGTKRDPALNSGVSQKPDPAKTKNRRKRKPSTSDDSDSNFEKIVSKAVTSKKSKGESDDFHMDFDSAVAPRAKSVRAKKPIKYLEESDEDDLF

In general, IC50 refers to the concentration that gives 50% inhibition. A low value points to greater potency. For the molecule `C[C@@]12CCCc3coc(c31)C(=O)c1cc3c(cc12)C(=O)C=CC3=O` [XQ, xestoquinone], inhibition was half-maximal at 94 nM (IC50).
